Reference: the supplement of paper PMC10307832

Experiments:
Test in all cases: relative viability (nuclei count vs DMSO), 5 days (fraction); higher = more cells survive
[1] = compound: C[As](C)SC[C@H](NC(=O)CC[C@H](N)C(=O)O)C(=O)NCC(=O)O [Darinaparsin] + CC(=O)Nc1cccc(-n2c(=O)n(C3CC3)c(=O)c3c(Nc4ccc(I)cc4F)n(C)c(=O)c(C)c32)c1 [Trametinib] (partner 0.02 µM)
Summary of the method: (§1)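 After 5 days of treatment, lung cancer cells in 1536-well plates were fixed and stained in a single step (final 0.05% Triton X-100, 1% formaldehyde, 1 ug/ml Hoechst) and their nuclei counted on 4× images. Treatment had been applied by pin tool the day after seeding as one drug alone or as a fixed anchor-drug dose with five library-drug doses (not always all listed) in √10 steps. Relative viability is the nuclei count of treated wells divided by that of vehicle wells, and values are medians of duplicate plates.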

[2] = compound: C1CC2=C(C1)C=C(C=C2)OC3=NC(=C4C(=N3)N(C=N4)CC5=CC=C(C=C5)C6=CC=CC=C6)N[C@@H](CC7=CC=CC=C7)CO [QS11] + Nc1nc2[nH]cc(CCc3ccc(C(=O)N[C@@H](CCC(=O)O)C(=O)O)cc3)c2c(=O)[nH]1 [Pemetrexed] (partner 0.2 µM)
Summary of the method: as §1

[3] = compound: C1CC2=C(C1)C=C(C=C2)OC3=NC(=C4C(=N3)N(C=N4)CC5=CC=C(C=C5)C6=CC=CC=C6)N[C@@H](CC7=CC=CC=C7)CO [QS11] + NC(=O)Nc1cc(-c2cccc(F)c2)sc1C(=O)N[C@H]1CCCNC1 [AZD7762] (partner 0.2 µM)
Summary of the method: as §1

[4] = compound: C1CC2=C(C1)C=C(C=C2)OC3=NC(=C4C(=N3)N(C=N4)CC5=CC=C(C=C5)C6=CC=CC=C6)N[C@@H](CC7=CC=CC=C7)CO [QS11] + Nc1ncn([C@H]2C[C@H](O)[C@@H](CO)O2)c(=O)n1 [Decitabine] (partner 2 µM)
Summary of the method: as §1

Cell Line	relative viability ([1]; first compound 0.08 µM)	relative viability ([1]; first compound 0.8 µM)	relative viability ([1]; first compound 2.53 µM)	relative viability ([1]; first compound 8 µM)	relative viability ([2]; first compound 0.08 µM)	relative viability ([2]; first compound 0.253 µM)	relative viability ([2]; first compound 0.8 µM)	relative viability ([2]; first compound 2.53 µM)	relative viability ([2]; first compound 8 µM)	relative viability ([3]; first compound 0.08 µM)	relative viability ([3]; first compound 0.253 µM)	relative viability ([3]; first compound 0.8 µM)	relative viability ([3]; first compound 2.53 µM)	relative viability ([3]; first compound 8 µM)	relative viability ([4]; first compound 0.08 µM)	relative viability ([4]; first compound 0.253 µM)	relative viability ([4]; first compound 0.8 µM)	relative viability ([4]; first compound 2.53 µM)	relative viability ([4]; first compound 8 µM)
NCI-H1734	0.724	0.611	0.655	0.677	0.374	0.393	0.393	0.472	0.424	0.579	0.595	0.71	0.465	0.529	0.538	0.532	0.478	0.457	0.51
HCC-827	0.578	0.502	0.566	0.508	0.262	0.274	0.258	0.257	0.35	0.194	0.201	0.234	0.307	0.187	0.343	0.33	0.308	0.336	0.337
201T	0.777	0.728	0.711	0.751	0.357	0.348	0.328	0.358	0.267	0.669	0.748	0.591	0.619	0.617	0.8	0.907	0.74	0.901	0.694
HCC-44	1.11	1.2	0.942	1.1	0.72	0.581	0.416	0.675	0.659	1.11	0.995	0.65	1.02	1.02	1.08	0.936	0.572	0.922	0.916
NCI-H650	0.856	1.01	1.04	0.956	0.834	0.819	0.83	0.841	0.839	0.762	0.981	0.775	1.05	0.645	0.283	0.365	0.347	0.298	0.322
PC-3 [JPC-3]	0.758	0.737	0.704	0.659		0.951	1.08	0.935	1.17		0.767	0.736	0.792	0.832		0.76	0.836	0.871	0.806
NCI-H1395	1.24	0.954	0.957	0.94	0.84	0.911	1.09	0.917	1.16	0.389	0.382	0.4	0.432	0.404	0.699	0.791	0.71	0.789	0.801
NCI-H1944	0.404	0.401	0.371	0.408	0.535	0.632		0.491	0.565	0.49	0.519		0.421	0.39	0.393	0.421		0.419	0.366
NCI-H322M	0.525	0.505	0.495	0.511	0.556	0.59	0.66	0.822	0.735	0.525	0.515	0.477	0.53	0.552	0.741	0.739	0.672	0.801	0.935
LCLC-103H	0.69	0.659	0.675	0.765	0.454	0.475		0.463	0.446	0.861	0.775		0.772	0.881	0.701	0.815		0.756	0.711
A-427	0.721	0.663	0.758	0.796	0.967	0.985		0.989	0.979	0.673	0.744		0.856	1.05	0.523	0.561		0.613	0.674
NCI-H1355	0.462	0.403	0.378	0.426	1.03	0.993	0.782	1.08	1.02	0.729	0.607	0.666	0.614	0.759	0.34	0.31	0.333	0.349	0.346
NCI-H2170	1.17	0.955	0.926	1.18	0.271	0.288	0.243	0.274	0.287	0.87	0.942	0.722	0.871	1.02	0.487	0.466	0.398	0.43	0.5
NCI-H1648		0.445		0.408	0.762	0.713	0.637	0.748	0.875	0.727	0.741	0.747	0.865	0.544	0.516	0.436	0.476	0.443	0.665
NCI-H1793	0.427	0.482		0.526	0.725	0.777	1.11	1.1	0.85	0.449	0.519	0.514	0.407	0.418	0.474	0.424	0.51	0.477	0.453
NCI-H2087	0.185	0.176	0.185	0.263	0.646	0.646	0.675	0.692	0.757	1.28	1.4	1.08	1.3	1.3	0.287	0.325	0.252	0.305	0.299
NCI-H2342	0.966	0.843	0.789	0.73	0.77	0.829	0.809	0.797	0.795	0.489	0.47	0.502	0.488	0.456	0.744	0.724	0.715	0.718	0.77
NCI-H596	0.762	0.748	0.856	0.755	0.456	0.468	0.507	0.528	0.476	1.07	0.94	1.22	1.03	1.27	1.26	0.87	0.971	1.17	1.04

Cell Line	relative viability ([1]; first compound 0.08 µM)	relative viability ([1]; first compound 0.8 µM)	relative viability ([1]; first compound 2.53 µM)	relative viability ([1]; first compound 8 µM)	relative viability ([2]; first compound 0.08 µM)	relative viability ([2]; first compound 0.253 µM)	relative viability ([2]; first compound 0.8 µM)	relative viability ([2]; first compound 2.53 µM)	relative viability ([2]; first compound 8 µM)	relative viability ([3]; first compound 0.08 µM)	relative viability ([3]; first compound 0.253 µM)	relative viability ([3]; first compound 0.8 µM)	relative viability ([3]; first compound 2.53 µM)	relative viability ([3]; first compound 8 µM)	relative viability ([4]; first compound 0.08 µM)	relative viability ([4]; first compound 0.253 µM)	relative viability ([4]; first compound 0.8 µM)	relative viability ([4]; first compound 2.53 µM)	relative viability ([4]; first compound 8 µM)
NCI-H522	0.704	0.888	0.682	0.816	0.824	1.02	0.878	1	0.884	0.798	0.871	0.878	1.11	0.863	0.704	0.569	0.677	0.664	0.726
NCI-H1993	0.661	0.5	0.512	0.589	0.649	0.503	0.618	0.573	0.618	0.793	0.88	0.927	0.771	0.615	0.614	0.621	0.655	0.543	0.573
NCI-H1792	0.513	0.52		0.557		0.603	0.925	0.629	0.514		0.733	0.595	0.385	0.34		0.536	0.518	0.498	0.58
HOP-62	0.401	0.385	0.316	0.428	0.414	0.371	0.276	0.23	0.283	0.556	0.611	0.538	0.608	0.582	0.244	0.241	0.189	0.208	0.233
NCI-H1437	0.594	0.562	0.505	0.674	0.314	0.331	0.301	0.286	0.271	1.12	1.18	0.891	1.08	1.11	0.557	0.649	0.432	0.585	0.531
HCC-366	0.393		0.336	0.378	0.163	0.139		0.175	0.136	0.28	0.259		0.271	0.192	0.346	0.329		0.369	0.192
NCI-H1755	0.811	0.795	0.857	0.844	0.554	0.443	0.39	0.446	0.355	0.472	0.492	0.42	0.48	0.413	0.625	0.715	0.535	0.685	0.671
NCI-H3122	0.231	0.208	0.216	0.347	0.2	0.214		0.25	0.296	0.998	1.05		1.15	0.961	0.484	0.554		0.487	0.556
ChaGo-K-1	0.914	0.862	0.785	0.984		0.269	0.256	0.263	0.255		0.862	1	0.941	1		0.515	0.5	0.56	0.443
NCI-H2085	0.469	0.477	0.586	0.618	0.879	0.841	0.925	1.04	1.01	1.01	1.06	0.791	1	0.991	0.478	0.549	0.49	0.56	0.557
NCI-H2405	0.702	0.562	0.55	0.668	1.01	1.02	0.974	1.05	1.05	0.731	0.747	0.789	1.13	1.22	0.793	0.714	0.706	0.906	0.843
NCI-H1666	1.03	0.845	0.858	0.912	0.834	0.937	0.824	0.739	0.651	0.959	0.806	0.682	0.727	0.63	0.746	0.748	0.653	0.699	0.485
BEN	1.18	0.998	0.991	1.12	0.638	0.764	0.911	0.852	0.815	0.577	0.66	0.929	0.773	0.79	0.717	0.775	0.74	0.713	0.695
HARA	0.825		0.733	0.638	0.251		0.215	0.244	0.256	0.63		0.267	0.454	0.329	0.508		0.36	0.605	0.389
RERF-LC-KJ	0.933	0.933	0.93	0.817	0.51	0.461	0.443	0.482	0.439	1.06	0.836	0.728	0.879	0.945	0.765	0.691	0.619	0.692	0.524
NCI-H1975	0.35	0.382	0.328	0.307	0.302	0.279	0.332	0.326	0.307	0.668	0.629	0.849	0.874	0.919	0.369	0.358	0.397	0.376	0.358
EPLC-272H	0.292	0.311	0.31	0.305	0.306	0.366	0.344	0.313	0.315		0.202	0.246	0.278	0.247		0.382	0.388	0.385	0.341
